# According to ChEMBL document CHEMBL1152470, “Antimicrobial activities of tigecycline and other broad-spectrum antimicrobials tested against serine carbapenemase- and metallo-beta-lactamase-producing Enterobacteriaceae: report from the SENTRY Antimicrobial Surveillance Program” (2008):
# Tests used:
# Type in all cases: functional
# [1] = test system: Enterobacter sp.; test: Antimicrobial activity against carbapenemase producing Enterobacter sp. assessed as susceptible isolates by CLSI breakpoint assay
# [2] = test system: Enterobacter sp.; test: Antimicrobial activity against carbapenemase producing Enterobacter sp. by CLSI broth microdilution method
# [3] = test system: Enterobacteriaceae; test: Antimicrobial activity against carbapenemase producing Enterobacteriaceae assessed as susceptible isolates by CLSI breakpoint assay
# [4] = test system: Enterobacter sp.; test: Antimicrobial activity against carbapenemase producing Enterobacter sp. assessed as resistant isolates by CLSI breakpoint assay
# [5] = test system: Klebsiella sp.; test: Antimicrobial activity against Klebsiella sp. by CLSI broth microdilution method
# [6] = test system: Enterobacteriaceae; test: Antimicrobial activity against carbapenemase producing Enterobacteriaceae by CLSI broth microdilution method
# [7] = test system: Klebsiella sp.; test: Antimicrobial activity against Klebsiella sp. assessed as susceptible isolates by CLSI breakpoint assay
# [8] = test system: Klebsiella sp.; test: Antimicrobial activity against Klebsiella sp. assessed as resistant isolates by CLSI breakpoint assay
# [9] = test system: Enterobacteriaceae; test: Antimicrobial activity against carbapenemase producing Enterobacteriaceae assessed as resistant isolates by CLSI breakpoint assay
# [10] = test system: Escherichia coli; test: Antimicrobial activity against KPC2/3 carbapenemase producing Escherichia coli […]
# [11] = test system: Serratia marcescens; test: Antimicrobial activity against KPC2/3 carbapenemase producing Serratia marcescens […]
# [12] = test system: Klebsiella pneumoniae; test: Antimicrobial activity against KPC2 carbapenemase producing Klebsiella pneumoniae […]
# [13] = test system: Citrobacter freundii; test: Antimicrobial activity against KPC2 carbapenemase producing Citrobacter freundii […]
# [14] = test system: Klebsiella pneumoniae; test: Antimicrobial activity against VIM1 carbapenemase producing Klebsiella pneumoniae […]
# [15] = test system: Citrobacter freundii; test: Antimicrobial activity against KPC3 carbapenemase producing Citrobacter freundii […]
# [16] = test system: Enterobacter cloacae; test: Antimicrobial activity against IMP1 carbapenemase producing Enterobacter cloacae […]
# [17] = test system: Enterobacter hormaechei; test: Antimicrobial activity against KPC2 carbapenemase producing Enterobacter hormaechei […]
# [18] = test system: Klebsiella oxytoca; test: Antimicrobial activity against KPC2/3 carbapenemase producing Klebsiella oxytoca […]
# [19] = test system: Klebsiella pneumoniae; test: Antimicrobial activity against KPC2/3 carbapenemase producing Klebsiella pneumoniae […]
# [20] = test system: Enterobacter cloacae; test: Antimicrobial activity against VIM1 carbapenemase producing Enterobacter cloacae […]
# [21] = test system: Klebsiella oxytoca; test: Antimicrobial activity against KPC3 carbapenemase producing Klebsiella oxytoca […]
# [22] = test system: Enterobacter cloacae; test: Antimicrobial activity against KPC2/3 carbapenemase producing Enterobacter cloacae […]
# [23] = test system: Serratia marcescens; test: Antimicrobial activity against SME1 carbapenemase producing Serratia marcescens […]
# [24] = test system: Pluralibacter gergoviae; test: Antimicrobial activity against KPC3 carbapenemase producing Enterobacter gergoviae […]
# [25] = test system: Enterobacter cloacae; test: Antimicrobial activity against NMC-A carbapenemase producing Enterobacter cloacae […]
# [26] = test system: Klebsiella oxytoca; test: Antimicrobial activity against KPC2 carbapenemase producing Klebsiella oxytoca […]
# [27] = test system: Citrobacter freundii; test: Antimicrobial activity against KPC2/3 carbapenemase producing Citrobacter freundii […]
# [28] = test system: Enterobacter cloacae; test: Antimicrobial activity against KPC2 carbapenemase producing Enterobacter cloacae […]
# [29] = test system: Enterobacteriaceae; test: Antimicrobial activity against Enterobacteriaceae
# [30] = test system: Proteus mirabilis; test: Antimicrobial activity against Proteus mirabilis
molecule,measurement,setting,value
C[C@@H](O)[C@H]1C(=O)N2C(C(=O)O)=C(SCCNC=N)C[C@H]12 [IMIPENEM ANHYDROUS],Activity,[1],54.2%
same,MIC50,[2],4 µg/mL
same,MIC90,[2],> 8 µg/mL
same,Activity,[3],37.5%
same,Activity,[4],17.7%
same,MIC50,[5],8 µg/mL
same,MIC90,[5],16 µg/mL
same,MIC50,[6],8 µg/mL
same,MIC90,[6],> 8 µg/mL
same,Activity,[7],21.7%
same,Activity,[8],46.7%
NCC[C@H](O)C(=O)N[C@@H]1C[C@H](N)[C@@H](O[C@H]2O[C@H](CN)[C@@H](O)[C@H](O)[C@H]2O)[C@H](O)[C@H]1O[C@H]1O[C@H](CO)[C@@H](O)[C@H](N)[C@H]1O [AMIKACIN],Activity,[9],8.3%
same,Activity,[1],95.2%
same,MIC50,[2],2 µg/mL
same,MIC90,[2],16 µg/mL
same,Activity,[3],73.3%
same,Activity,[4],4.8%
same,MIC50,[5],16 µg/mL
same,MIC90,[5],> 32 µg/mL
same,MIC50,[6],8 µg/mL
same,MIC90,[6],32 µg/mL
same,Activity,[7],53.3%
same,Activity,[8],13.3%
GENTAMICIN,Activity,[1],42.9%
same,MIC50,[2],8 µg/mL
same,MIC90,[2],> 8 µg/mL
same,Activity,[3],73.3%
same,Activity,[4],38.1%
same,MIC50,[5],< 2 µg/mL
same,MIC90,[5],> 8 µg/mL
same,MIC50,[6],4 µg/mL
same,MIC90,[6],> 8 µg/mL
same,Activity,[7],58.3%
same,Activity,[8],31.2%
POLYMYXIN B,Activity,[9],11.9%
same,Activity,[1],95.2%
same,MIC50,[2],< 1 µg/mL
same,MIC90,[2],< 1 µg/mL
same,Activity,[3],88.1%
same,Activity,[4],4.8%
same,MIC50,[5],< 1 µg/mL
same,MIC90,[5],< 1 µg/mL
same,MIC50,[6],< 1 µg/mL
same,MIC90,[6],4 µg/mL
same,Activity,[7],93.3%
same,Activity,[8],6.7%
CN(C)c1cc(NC(=O)CNC(C)(C)C)c(O)c2c1C[C@H]1C[C@H]3[C@H](N(C)C)C(O)=C(C(N)=O)C(=O)[C@@]3(O)C(O)=C1C2=O [TIGECYCLINE],MIC,[10],0.12 µg/mL
same,MIC,[11],0.5 µg/mL
same,MIC,[12],1 µg/mL
same,MIC,[13],1 µg/mL
same,MIC,[14],0.12 µg/mL
same,MIC,[15],0.12 µg/mL
same,MIC,[16],0.25 µg/mL
same,Activity,[9],0%
same,MIC,[17],2 µg/mL
same,Activity,[1],100%
same,MIC,[18],0.25 µg/mL
same,MIC50,[2],0.25 µg/mL
same,MIC90,[2],0.5 µg/mL
same,MIC,[19],0.25 µg/mL
same,MIC,[20],0.25 µg/mL
same,MIC,[21],0.5 µg/mL
same,Activity,[3],100%
same,Activity,[4],0%
same,MIC50,[5],1 µg/mL
same,MIC90,[5],2 µg/mL
same,MIC,[22],0.12 µg/mL
same,MIC50,[6],0.5 µg/mL
same,MIC90,[6],1 µg/mL
same,MIC,[23],0.5 µg/mL
same,MIC,[24],0.25 µg/mL
same,MIC,[25],0.12 µg/mL
same,MIC,[26],0.12 µg/mL
same,MIC,[27],0.25 µg/mL
same,Activity,[7],100%
same,Activity,[8],0%
same,MIC,[28],0.5 µg/mL
C[C@@H](O)[C@H]1C(=O)N2C(C(=O)O)=C(S[C@@H]3CN[C@H](C(=O)Nc4cccc(C(=O)O)c4)C3)[C@H](C)[C@H]12,Activity,[9],73.1%
same,Activity,[1],8.3%
same,MIC50,[2],> 8 µg/mL
same,MIC90,[2],> 16 µg/mL
same,Activity,[3],7.7%
same,Activity,[4],12.5%
same,MIC50,[5],> 8 µg/mL
same,MIC90,[5],> 32 µg/mL
same,MIC50,[6],8 µg/mL
same,MIC90,[6],32 µg/mL
same,Activity,[7],5%
same,Activity,[8],83.3%
C[C@@H](O)[C@H]1C(=O)N2C(C(=O)O)=C(S[C@@H]3CN[C@H](C(=O)N(C)C)C3)[C@H](C)[C@H]12 [MEROPENEM],Activity,[9],50%
same,Activity,[1],33.3%
same,MIC,[29],≥ 2 µg/mL
same,MIC50,[2],8 µg/mL
same,MIC90,[2],> 8 µg/mL
same,Activity,[3],32.7%
same,Activity,[4],41.7%
same,MIC50,[5],> 8 µg/mL
same,MIC90,[5],> 8 µg/mL
same,MIC50,[6],8 µg/mL
same,MIC90,[6],> 8 µg/mL
same,Activity,[7],20%
same,MIC,[30],≥ 16 µg/mL
same,Activity,[8],61.7%
CN(C)[C@@H]1C(O)=C(C(N)=O)C(=O)[C@@]2(O)C(O)=C3C(=O)c4c(O)cccc4[C@@](C)(O)[C@H]3C[C@@H]12 [TETRACYCLINE],Activity,[9],19.2%
same,Activity,[1],70.8%
same,MIC50,[2],4 µg/mL
same,MIC90,[2],> 8 µg/mL
same,Activity,[3],35.6%
same,Activity,[4],20.8%
same,MIC50,[5],4 µg/mL
same,MIC90,[5],> 8 µg/mL
same,MIC50,[6],4 µg/mL
same,MIC90,[6],> 8 µg/mL
same,Activity,[7],66.7%
same,Activity,[8],13.3%
